Data published in patent US20240041977A1, “ANNEXIN A1 N-TERMINAL PEPTIDE FORMULATIONS AND METHODS” (ResoTher Pharma A/S, priority 2020, published 2024).
Marks after values point to notes of the source that are not given here. Ends that are not written are not given here.

Assay: ThT assay lag-time (fibrillation propensity, physical stability)
Type: physicochemical
Source text: ThT is widely used to visualize and quantify the presence of misfolded peptide and protein aggregates called amyloids or fibrils. ThT is a fluorescent molecule that binds to inter molecular beta-sheets in peptides and proteins (here AnxA1). […] A weaker fluorescence intensity is indicative of less amyloids or fibrils present with fewer intermolecular beta-sheets where ThT can bind. Some peptides have a tendency to form fibrils and amyloids and the propensity is dependent on the formulation conditions in an unpredictable manor. Fibrillation is a stochastic process and to avoid long analysis times and both false negatives and positive results, shear stress is introduced to the sample by rigorous rotation in microtiter plates while continuously monitoring the fluorescence emission at approximately 486 nm. An increase in the fluorescence is an indication of the formation of amyloids or fibrils and the time it takes for the fluorescence to start increasing is known as the lag-time. A faster (short) lag-time is an indication of higher propensity for the peptide to degrade by formation of fibrils or amyloids. A ThT fluorescence of 50 AU at t=0 is considered noise or background. Lag time is reported as the time it takes for the signal intensity to exceed 50 AU. All samples for the ThT assay were filtered through cellulose acetate filters ([…], Ø=13 mm, rinsed with MilliQ® water prior to filtration). For each sample, 20 μL ThT of a 1 mM solution was added to 1 mL peptide solution. From this sample mixture, 200 μL was transferred into n wells in a 96 well microtiter plate (n=3-6). 96-well NUNC plates Bottom optics and Sealing tape, Thermo Scientific™ Nunc™ Sealing Tapes, was used. Lag-time is reported as an average of n samples. A fluorescence plate reader (CLARIOstar® Plus, BMG Labtech) was used for the experiments with the following setting: Excitation wavelength 450 nm; Dichroic filter 465 nm; Emission wavelength 486 nm; Focal height 3.5 mm; Gain 1000; […]; […]; Number of flashes per well 20; Temperature 25° C.; Shake mode orbital, Frequency of 300 rpm, 200 s, and shake after each cycle. If possible, the average of all ThT data replicates are used for ThT lag-time determination. In case of very stochastic data, worst-case data is used for lag-time evaluation. ThT lag-time was determined using either a 1-step or 2-step sigmoidal curve.

## AMVSEFLKQAWFIENEEQEYVQTLKSSKGGPGSAVSPYPTFNPSSDV-NH2 [AnxA1]
6.4 mg/mL, possibly 5.0 mg/ml, and above, 0.9% NaCl
  fibrillation in ThT assay: already degraded by the formation of fibrils at time zero
10 mM tris, pH 7.5, AnxA1 1.7 mg/mL containing 5% mannitol or sorbitol
  lag-time: > 65 h
AnxA1 1.4 mg/mL, mannitol 4 wt.%, sucrose 2.5 wt.%, glycyl-glycine 50 mM, pH 8.5
  Lag-time: >65 h
AnxA1 1.4 mg/mL, sucrose 10 wt.%, glycyl-glycine 50 mM, pH 8.5
  Lag-time: >65 h
AnxA1 1.5 mg/mL, NaCl 0.9%, ZnCl2 0.77 mM, pH N/A
  Avg. lag-time: 1.8 h
AnxA1 1.5 mg/mL, glucose 5 wt.%, pH 7.1
  Avg-lag time: 21.7 h
AnxA1 1.5 mg/mL, mannitol 4 wt.%, sucrose 2.5 wt.%, glycyl-glycine 10 mM, pH 7.5
  Lag-time: >65 h
AnxA1 1.5 mg/mL, mannitol 4 wt.%, sucrose 2.5 wt.%, glycyl-glycine 50 mM, pH 7.6
  Lag-time: >65 h
AnxA1 1.5 mg/mL, mannitol 5 wt.%, glycyl-glycine 10 mM, pH 7.4, analysis timeframe 65 hours
  Lag-time: >65* hours
AnxA1 1.5 mg/mL, mannitol 5 wt.%, glycyl-glycine 50 mM, pH 7.5
  Lag-time: >65 h
AnxA1 1.5 mg/mL, sucrose 10 wt.%, Tris 10 mM, pH 7.5
  Lag-time: 42.8 h
AnxA1 1.5 mg/mL, sucrose 10 wt.%, glycyl-glycine 10 mM, pH 8.3
  Lag-time: >65 h
AnxA1 1.6 mg/mL in Milli Q water, no salt, pH 7.5, maximum assay time 50 hours
  Avg. lag-time: >50.0* h
AnxA1 1.6 mg/mL in Milli Q water, no salt, pH 7.6, maximum assay time 50 hours
  Avg. lag-time: >50.0* h
AnxA1 1.6 mg/mL, 0.9% NaCl in Milli Q water, pH 7.1
  Avg. lag-time: 28.3 h
AnxA1 1.6 mg/mL, CaCl2 0.77 mM, pH 7.2
  Avg. lag-time: 12.5 h
AnxA1 1.6 mg/mL, CaCl2 0.77 mM, pH 7.4
  Avg. lag-time: 10.8 h
AnxA1 1.6 mg/mL, NaCl 0.9%, CaCl2 0.77 mM, pH 7.1
  Avg. lag-time: 5.4 h
AnxA1 1.6 mg/mL, mannitol 4 wt.%, sucrose 2.5 wt.%, glycyl-glycine 10 mM, pH 8.4
  Lag-time: >65 h
AnxA1 1.6 mg/mL, mannitol 5 wt.%, glycyl-glycine printed as 'e' mM, pH 8.3
  Lag-time: >65 h
AnxA1 1.6 mg/mL, mannitol 5 wt.%, glycylglycine 10 mM, pH 8.0, no increase in fluorescence within 65 hours
  Lag-time: > 65* hours
AnxA1 1.6 mg/mL, mannitol 5 wt.%, pH 6.7, no increase in fluorescence within 65 hours
  Avg-lag time: > 65* h
AnxA1 1.6 mg/mL, sucrose 10 wt.%, glycyl-glycine 50 mM, pH 7.6
  Lag-time: 64.7 h
AnxA1 1.6 mg/mL, sucrose 10 wt.%, glycylglycine 10 mM, pH 8.0, no increase in fluorescence within 65 hours
  Lag-time: > 65* hours
AnxA1 1.6 mg/mL, sucrose 10 wt.%, pH 7.2, no increase in fluorescence within 65 hours
  Avg-lag time: > 65* h
AnxA1 1.6 mg/mL, trehalose 10 wt.%, pH 7.2
  Avg-lag time: 33.3 h
AnxA1 1.7 mg/mL in Milli-Q water, pH 7.4, no increase in fluorescence within 65 hours
  Avg. lag-time: > 65* h
AnxA1 1.7 mg/mL, mannitol 5 wt.%, Tris 10 mM, pH 7.5, no increase in fluorescence within 65 hours
  Lag-time: > 65* hours
AnxA1 1.7 mg/mL, sorbitol 5 wt.%, Tris 10 mM, pH 7.6, no increase in fluorescence within 65 hours
  Lag-time: > 65* hours
AnxA1 1.7 mg/mL, sorbitol 5 wt.%, glycylglycine 10 mM, pH 8.0, no increase in fluorescence within 65 hours
  Lag-time: > 65* hours
AnxA1 3.1 mg/mL in Milli-Q water, pH 7.4
  Avg. lag-time: 50.4 h
AnxA1 3.1 mg/mL, mannitol 5 wt.%, glycylglycine 10 mM, pH 8.0, no increase in fluorescence within 65 hours
  Lag-time: > 65* hours
AnxA1 3.2 mg/mL in Saline (0.9% NaCl), pH 7.4
  Avg. lag-time: 5.6 h
AnxA1 3.2 mg/mL, 0.9% NaCl in Milli Q water, pH 7.4
  Avg. lag-time: 9.3 h
AnxA1 3.2 mg/mL, NaCl 0.9%, pH 7.2
  Avg. lag-time: 9.7 h
AnxA1 3.2 mg/mL, mannitol 5 wt.%, glycylglycine 10 mM, pH 8.0, no increase in fluorescence within 65 hours
  Lag-time: > 65* hours
AnxA1 3.3 mg/mL, mannitol 5 wt.%, glycylglycine 10 mM, pH 8.0, no increase in fluorescence within 65 hours
  Lag-time: > 65* hours
AnxA1 4.0 mg/mL, mannitol 5 wt.%, glycyl-glycine 10 mM, pH 8.2
  Lag-time: >65 h
AnxA1 4 mg/mL, tonicity 100%, NaCl 0.9 wt%, positive control sample in 0.9% saline
  Lag-time: 8.2* hours
AnxA1 4.6 mg/mL in Milli-Q water, pH 7.4
  Avg. lag-time: 61.4 h
AnxA1 4.6 mg/mL, sorbitol 5 wt.%, glycylglycine 10 mM, pH 8.0, no increase in fluorescence within 65 hours
  Lag-time: > 65* hours
AnxA1 4.6 mg/mL, sucrose 10 wt.%, glycyl-glycine 30 mM, pH 8.0
  Lag-time: 39 h
AnxA1 4.7 mg/mL, mannitol 5 wt.%, Tris 10 mM, pH 7.5
  Lag-time: 10.7 h
AnxA1 4.7 mg/mL, mannitol 5 wt.%, glycylglycine 10 mM, pH 8.0, no increase in fluorescence within 65 hours
  Lag-time: > 65* hours
